Numbering of substitutions follows the chain as printed.
Tests used:
ALK2 [1] = target: T1, ALK2 (Mus musculus, UniProt P37172); experiment: HTRF pSMAD1 cell-based ALK2 assay (C2C12 cells, BMP6 as agonist); conditions: cell-based assay, BMP6; read-out: Cell IC50 BMP6
T1 construct: The C2C12 cell line was selected for the measurement of ALK2 activity using BMP6 as the agonist; host or cells: C2C12
T1 sequence (P37172 21-509): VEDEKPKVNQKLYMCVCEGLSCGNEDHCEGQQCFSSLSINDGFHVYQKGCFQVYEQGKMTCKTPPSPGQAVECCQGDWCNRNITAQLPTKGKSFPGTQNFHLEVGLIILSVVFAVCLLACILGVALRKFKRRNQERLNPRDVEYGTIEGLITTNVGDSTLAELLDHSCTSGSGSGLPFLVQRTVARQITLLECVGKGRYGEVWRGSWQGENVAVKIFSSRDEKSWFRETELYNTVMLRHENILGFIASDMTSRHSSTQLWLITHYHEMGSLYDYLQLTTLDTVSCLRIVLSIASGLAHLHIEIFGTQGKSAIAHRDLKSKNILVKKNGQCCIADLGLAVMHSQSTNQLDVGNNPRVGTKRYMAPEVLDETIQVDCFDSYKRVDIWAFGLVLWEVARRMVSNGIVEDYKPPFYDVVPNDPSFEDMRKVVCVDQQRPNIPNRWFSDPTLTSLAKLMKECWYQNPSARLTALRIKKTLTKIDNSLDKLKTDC
Method in brief: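 Phospho-SMAD1 HTRF readout, detection incubated overnight at room temperature. Before that: starved cells in 0.1% FBS for 4 h, 30 min compound pretreatment, then 30 min agonist, BMP6 on C2C12 or BMP9 on BAOEC.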

[2] = Cell-based assay, TGFb1 (Cell IC50)
ALK1 = ALK1 (Homo sapiens, UniProt P37023); experiment: TR-FRET enzymatic ALK kinase assay, ALK1
Protocol: (§1) Briefly, the ALKs enzymatic assay was initiated by dispense 2.5 μl enzyme in 1× kinase reaction buffer. The assay plate was then added with compounds followed by incubation at room temperature for 10 minutes. Then 2.5 μl/well substrate was added.

ALK2 [3] = target: T2, ALK2 (Homo sapiens, UniProt Q04771); experiment: TR-FRET enzymatic ALK kinase assay, ALK2
T2 sequence (Q04771 21-509): T1 sequence (P37172 21-509) with V1M, Q10P, I121L, E162D, S310P
Protocol: as §1

ALK3 = ALK3 (Homo sapiens, UniProt P36894); experiment: TR-FRET enzymatic ALK kinase assay, ALK3
Protocol: as §1

ALK4 = target: T3, ALK4 (Homo sapiens, UniProt P36896); experiment: TR-FRET enzymatic ALK kinase assay, ALK4
T3 sequence (P36896 24-505): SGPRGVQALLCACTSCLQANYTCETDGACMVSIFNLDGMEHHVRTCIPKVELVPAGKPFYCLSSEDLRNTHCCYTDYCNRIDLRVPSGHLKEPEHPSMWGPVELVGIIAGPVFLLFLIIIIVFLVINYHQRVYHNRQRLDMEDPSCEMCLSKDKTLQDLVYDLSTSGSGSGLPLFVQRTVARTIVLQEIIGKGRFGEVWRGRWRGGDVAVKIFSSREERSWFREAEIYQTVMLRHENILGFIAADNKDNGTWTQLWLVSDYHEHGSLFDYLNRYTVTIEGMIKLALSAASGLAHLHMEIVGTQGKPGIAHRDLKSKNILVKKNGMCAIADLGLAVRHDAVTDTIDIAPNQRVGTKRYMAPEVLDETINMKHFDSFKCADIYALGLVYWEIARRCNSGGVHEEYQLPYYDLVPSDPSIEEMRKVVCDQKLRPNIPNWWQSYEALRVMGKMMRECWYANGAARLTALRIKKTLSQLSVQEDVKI
Protocol: as §1

ALK5 = target: T4, ALK5 (Homo sapiens, UniProt P36897); experiment: TR-FRET enzymatic ALK kinase assay, ALK5
T4 sequence (P36897 34-503): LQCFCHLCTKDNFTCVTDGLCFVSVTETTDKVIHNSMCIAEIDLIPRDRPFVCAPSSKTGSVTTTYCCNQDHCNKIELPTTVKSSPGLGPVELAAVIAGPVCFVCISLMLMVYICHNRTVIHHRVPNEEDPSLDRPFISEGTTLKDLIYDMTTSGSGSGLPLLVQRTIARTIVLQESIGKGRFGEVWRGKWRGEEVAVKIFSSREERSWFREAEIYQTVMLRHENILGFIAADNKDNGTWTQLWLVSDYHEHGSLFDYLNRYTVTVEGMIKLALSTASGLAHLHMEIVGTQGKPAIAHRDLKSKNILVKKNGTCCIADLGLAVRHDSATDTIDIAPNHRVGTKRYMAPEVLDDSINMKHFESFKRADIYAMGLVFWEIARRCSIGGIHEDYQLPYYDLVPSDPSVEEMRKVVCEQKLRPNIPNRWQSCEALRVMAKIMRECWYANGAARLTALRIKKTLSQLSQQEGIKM
Protocol: Six ALK kinase enzyme assays were developed for determination of compound activities on ALK1, ALK2, ALK3, ALK4, ALK5 and ALK6.
as §1

ALK6 = ALK6 (Homo sapiens, UniProt O00238); experiment: TR-FRET enzymatic ALK kinase assay, ALK6
Sequence of ALK6 (O00238 14-502): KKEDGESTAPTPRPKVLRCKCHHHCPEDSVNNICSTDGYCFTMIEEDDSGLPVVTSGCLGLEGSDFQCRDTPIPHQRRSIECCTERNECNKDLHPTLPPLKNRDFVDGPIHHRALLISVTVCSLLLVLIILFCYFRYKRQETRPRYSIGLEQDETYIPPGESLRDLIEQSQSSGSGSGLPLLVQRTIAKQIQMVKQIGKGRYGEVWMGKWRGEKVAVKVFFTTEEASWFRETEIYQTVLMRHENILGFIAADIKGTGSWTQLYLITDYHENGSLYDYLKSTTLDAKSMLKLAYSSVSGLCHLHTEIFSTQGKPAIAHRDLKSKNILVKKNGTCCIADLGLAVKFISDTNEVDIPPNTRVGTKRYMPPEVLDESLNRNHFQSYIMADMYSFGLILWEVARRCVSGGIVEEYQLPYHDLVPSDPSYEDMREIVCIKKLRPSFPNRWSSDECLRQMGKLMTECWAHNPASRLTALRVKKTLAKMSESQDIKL
Protocol: as §1

Sequence of ALK3 (P36894 24-532): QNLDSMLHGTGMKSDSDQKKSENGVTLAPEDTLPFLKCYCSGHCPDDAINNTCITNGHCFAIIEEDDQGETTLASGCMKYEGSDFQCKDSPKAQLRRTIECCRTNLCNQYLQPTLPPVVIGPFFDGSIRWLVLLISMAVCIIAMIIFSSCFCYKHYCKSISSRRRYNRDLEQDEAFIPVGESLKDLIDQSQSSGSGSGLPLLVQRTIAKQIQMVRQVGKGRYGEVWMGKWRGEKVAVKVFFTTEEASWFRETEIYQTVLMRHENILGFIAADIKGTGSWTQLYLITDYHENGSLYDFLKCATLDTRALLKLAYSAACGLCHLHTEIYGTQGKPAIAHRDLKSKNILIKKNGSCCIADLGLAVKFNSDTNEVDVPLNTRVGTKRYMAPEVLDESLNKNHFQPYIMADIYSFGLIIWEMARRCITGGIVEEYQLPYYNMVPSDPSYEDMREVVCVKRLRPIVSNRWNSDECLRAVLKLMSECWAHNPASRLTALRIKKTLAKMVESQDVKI
Sequence of ALK1 (P37023 22-503): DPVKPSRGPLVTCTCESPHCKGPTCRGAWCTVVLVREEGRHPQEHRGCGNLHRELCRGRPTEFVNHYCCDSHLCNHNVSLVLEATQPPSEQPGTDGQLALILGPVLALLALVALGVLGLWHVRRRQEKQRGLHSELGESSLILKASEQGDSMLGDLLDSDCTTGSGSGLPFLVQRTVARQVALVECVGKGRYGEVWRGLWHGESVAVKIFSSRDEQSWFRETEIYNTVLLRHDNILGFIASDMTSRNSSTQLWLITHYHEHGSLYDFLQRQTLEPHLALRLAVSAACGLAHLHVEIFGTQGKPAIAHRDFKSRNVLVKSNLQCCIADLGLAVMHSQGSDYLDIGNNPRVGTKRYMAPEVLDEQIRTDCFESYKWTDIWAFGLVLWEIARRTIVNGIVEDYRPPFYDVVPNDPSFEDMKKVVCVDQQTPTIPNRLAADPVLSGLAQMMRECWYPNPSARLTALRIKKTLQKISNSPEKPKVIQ

Compound	IC50 (ALK2 [1]) [µM]	IC50 [2] [µM]	IC50 (ALK1) [µM]	IC50 (ALK2 [3]) [µM]	IC50 (ALK3) [µM]	IC50 (ALK4) [µM]	IC50 (ALK5) [µM]	IC50 (ALK6) [µM]
C[C@@H]1CNC[C@H](C)N1c1ccc(-c2cnc3c(-c4ccc(-c5nn[nH]n5)c5ccccc45)cnn3c2)cc1 [Compound 26, 3-(4-(1H-tetrazol-5-yl)naphthalen-1-yl)-6-(4-((2R,6S)-2,6-dimethylpiperazin-1-yl)phenyl)pyrazolo[1,5-a]pyrimidine]	2.99	1.85	0.048	0.013	0.391	3.04	6.11	1.91
CNS(=O)(=O)c1cccc2c(-c3cnn4cc(-c5ccc(N6[C@H](C)CNC[C@@H]6C)cc5)cnc34)cccc12 [Compound 41, 5-(6-(4-((2R,6S)-2,6-dimethylpiperazin-1-yl)phenyl)pyrazolo[1,5-a]pyrimidin-3-yl)-N-methylnaphthalene-1-sulfonamide]	0.148	2.94	0.54	0.12	1.6	> 10	> 10	6.5
NS(=O)(=O)c1cccc(-c2cnn3cc(-c4ccc(CCN5CCCCC5)cc4)cnc23)c1 [Compound 75, 3-(6-(4-(2-(piperidin-1-yl)ethyl)phenyl)pyrazolo[1,5-a]pyrimidin-3-yl)benzenesulfonamide]	0.467	13.5	0.57	0.12	6.3	> 10	> 10	> 10
CNS(=O)(=O)c1cccc(-c2cnn3cc(-c4ccc(N5[C@H](C)CNC[C@@H]5C)cc4)cnc23)c1 [Compound 76, 3-(6-(4-((2R,6S)-2,6-dimethylpiperazin-1-yl)phenyl)pyrazolo[1,5-a]pyrimidin-3-yl)-N-methylbenzenesulfonamide]	0.067	0.79	0.058	0.02	0.89	4.8	> 10	> 10
CCNS(=O)(=O)c1cccc(-c2cnn3cc(-c4ccc(N5[C@H](C)CNC[C@@H]5C)cc4)cnc23)c1 [Compound 77, 3-(6-(4-((2R,6S)-2,6-dimethylpiperazin-1-yl)phenyl)pyrazolo[1,5-a]pyrimidin-3-yl)-N-ethylbenzenesulfonamide]	0.028	0.423	0.11	0.031	2.1	4.3	> 10	> 10
Fc1ccc(-c2cnn3cc(-c4ccc(CCN5CCCCC5)cc4)cnc23)cc1-c1nnn[nH]1 [Compound 78, 3-(4-fluoro-3-(1H-tetrazol-5-yl)phenyl)-6-(4-(2-(piperidin-1-yl)ethyl)phenyl)pyrazolo[1,5-a]pyrimidine]	70	100	0.15	0.016	0.19	> 10	> 10	0.24
C[C@@H]1CNC[C@H](C)N1c1ccc(-c2cnc3c(-c4cc(C#N)cc(S(N)(=O)=O)c4)cnn3c2)cc1 [Compound 79, 3-cyano-5-(6-(4-((2R,6S)-2,6-dimethylpiperazin-1-yl)phenyl)pyrazolo[1,5-a]pyrimidin-3-yl)benzenesulfonamide]	8.93	10.1	1.2	0.19	> 10	> 10	> 10	> 10
CN1CCC(c2ccc(-c3cnc4c(-c5ccc(S(N)(=O)=O)c6ccccc56)cnn4c3)cc2)CC1 [Compound 80, 4-(6-(4-(1-methylpiperidin-4-yl)phenyl)pyrazolo[1,5-a]pyrimidin-3-yl)naphthalene-1-sulfonamide]	1.85	> 100	0.16	0.035	> 10	> 10	> 10	> 10
C[C@@H]1CNC[C@H](C)N1c1ccc(-c2cnc3c(-c4cccc(C(F)(F)F)c4)cnn3c2)cc1 [Compound 81, 6-(4-((2R,6S)-2,6-dimethylpiperazin-1-yl)phenyl)-3-(3-(trifluoromethyl)phenyl)pyrazolo[1,5-a]pyrimidine]	27.4	> 100	0.88	0.17	> 10	> 10	> 10	> 10
C[C@@H]1CNC[C@H](C)N1c1ccc(-c2cnc3c(-c4ccc(F)c(C#N)c4)cnn3c2)cc1 [Compound 84, 5-(6-(4-((2R,6S)-2,6-dimethylpiperazin-1-yl)phenyl)pyrazolo[1,5-a]pyrimidin-3-yl)-2-fluorobenzonitrile]	2.08	10	0.86	0.12	> 10	> 10	> 10	> 10
C[C@@H]1CNC[C@H](C)N1c1ccc(-c2cnc3c(-c4ccc(N)c(S(N)(=O)=O)c4)cnn3c2)cc1 [Compound 85, 2-amino-5-(6-(4-((2R,6S)-2,6-dimethylpiperazin-1-yl)phenyl)pyrazolo[1,5-a]pyrimidin-3-yl)benzenesulfonamide]	0.11	5.57	0.12	0.039	1.7	7.3	> 10	> 10
CS(=O)(=O)c1cccc(-c2cnn3cc(-c4ccc(CCN5CCCCC5)cc4)cnc23)c1 [Compound 86, 3-(3-(methylsulfonyl)phenyl)-6-(4-(2-(piperidin-1-yl)ethyl)phenyl)pyrazolo[1,5-a]pyrimidine]	0.419	57	0.17	0.037	1.5	> 10	> 10	> 10
NS(=O)(=O)c1ccc(-c2cnn3cc(-c4ccc(OC5(CN6CCCCC6)COC5)cc4)cnc23)c2ccccc12 [Compound 87, 4-(6-(4-((3-(piperidin-1-ylmethyl)oxetan-3-yl)oxy)phenyl)pyrazolo[1,5-a]pyrimidin-3-yl)naphthalene-1-sulfonamide]	0.479	30	0.084	0.023	1.8	> 10	> 10	> 10
